Test results: patent US20140186261A1, “ANTI-TUMOR AGENT AND ANTI-TUMOR KIT” (NIHON MEDI-PHYSICS CO., LTD., priority 2012, published 2014)
Where two headings read alike, the source gives them in different places. One block for each compound: values may come before it.

How the values were obtained:
[1] = system: CD133+ cells in HT29 tumor; assay type: in vivo, BALB/c nude mice; conditions: tumor removed 2 days after 64Cu-ATSM administration; 5-FU 25 mg/kg x4 days, 64Cu-ATSM 37 or 74 MBq; anti-CD133 flow cytometry; 6 mice
Description: (§1) Human large bowel cancer-derived HT29 cells were purchased from ATCC and proliferated for use. […] At the final day of 5-FU administration, 37 MBq (1 mCi) of ^64Cu-ATSM was administered through the tail vein.
(§2) Cu-ATSM. The tumor size in mice was measured 2, 4, 8, 12, or 15 days after starting the administration of 5-FU. Cells obtained from the tumor removed at 2 days after the administration of ^64Cu-ATSM were subjected to the detection of apoptotic cells and CD133-positive (CD133+) cells using flow cytometry (Guava flow cytometry, from Millipore Corporation). The detection of apoptotic cells was performed using Annexin V (Mouse Anti-Human Annexin V FITC, AbD MCA2712F, from Serotec Co., Ltd.). The detection of CD133+cells was performed using an anti-CD133 antibody (CD133/1(A133)-PE, from Miltenyi Biotec K.K.).
In FIG. 3, the results of percentages of CD133+cells in the removed tumor are expressed in average and standard deviation for 6 mice.

HT29 cells [2] = experiment: Anti-tumor effect of repeated administration of 64Cu-ATSM and 5-FU in HT29 tumor-bearing mouse (tumor volume); assay type: in vivo, BALB/c nude mice; conditions: HT29 tumor-bearing mice; two cycles (start day 1 and 25th day) of 5-FU 25 mg/kg i.p. x4 days and 64Cu-ATSM 37 MBq at final day; to day 34; 6 mice
Description: The HT29 tumor-bearing model was prepared in the same way as Example 2; 1 week after the implantation of HT29 cells, 5-FU was repeatedly intraperitoneally administered at 25 mg/kg once a day for 4 days; and at the final day (4th day) of 5-FU administration, 37 MBq (1 mCi) of ^64Cu-ATSM was administered through the tail vein. The administration of 5-FU was again started at the 25th day from the start of 5-FU administration, with 25 mg/kg thereof repeatedly administered once a day for 4 days. At the final day of 5-FU administration, 37 MBq (1 mCi) of ^64Cu-ATSM was then administered through the tail vein. […] The tumor size in mice was measured 2, 4, 8, 12, 14, 16, 20, 24, 27, 31, or 34 days after starting the administration of 5-FU.
The experiment was carried out in the same way as Example 7 except for administering saline in place of ^64Cu-ATSM.
The experiment was carried out in the same way as Example 7 except for administering saline in place of 5-FU.
The volume of tumor was calculated from the size of tumor measured in Example 7 and Comparative Examples 6 and 7; the change thereof with time is shown in FIG. 5. In FIG. 5, the tumor volume at the day prior to the day of the first start of 5-FU administration was set to 100%, and the percentage based thereon was given. In FIG. 5, data are expressed in average and standard deviation for 6 mice.

[3] = system: Human large bowel cancer-derived HT29 cells; experiment: Anti-tumor effect of 64Cu-ATSM and 5-FU in HT29 tumor-bearing mouse (tumor volume); assay type: in vivo, BALB/c nude mice; conditions: HT29 tumor-bearing mice; 5-FU 25 mg/kg i.p. once a day x4 days; 64Cu-ATSM 37 MBq (74 MBq in Comparative Example 3) via tail vein at final day; measured to day 15; 6 mice
Description: as §1, §2
The experiment was carried out in the same way as Example 2 except for administering saline in place of ^64Cu-ATSM.
The experiment was carried out in the same way as Example 2 except for administering saline in place of 5-FU.
Saline was administered in place of 5-FU. The dose of ^64Cu-ATSM was 74 MBq (2 mCi). The experiment was carried out in the otherwise same way as Example 2.
The volume of tumor was calculated from the size of tumor measured in Example 2 and Comparative Examples 1 to 3; the change thereof with time is shown in FIG. 1. […]

[4] = assay type: in vivo, BALB/c nude mice
Description: 5-FU was repeatedly intraperitoneally administered to BALB/c nude mice (male, 7-week old, about 25 g in body weight, obtained from Japan SLC, Inc.) at 25 mg/kg, 50 mg/kg, or 100 mg/kg once a day for 4 days. Body weight was measured at the 5th day from the first starting day of administration and later to determine the rate of body weight reduction. The rate of body weight reduction was calculated based on the following equation.
Body weight reduction rate(%)=[{(Body weight at day prior to the date of first 5-FU administration)−(Body weight measured after start of 5-FU administration)}/(Body weight at day prior to the date of first 5-FU administration)]×100
Saline was administered to a control group in place of 5-FU.

[5] = system: Human large bowel cancer-derived HT29 cells; experiment: Detection of apoptotic cells in removed HT29 tumor by flow cytometry (Annexin V); assay type: in vivo, BALB/c nude mice; conditions: tumor removed 2 days after 64Cu-ATSM administration, 5-FU 25 mg/kg x4 days, 64Cu-ATSM 37 or 74 MBq, 6 mice
Description: as §1, §2
In FIG. 2, the results of percentages of apoptotic cells in the removed tumor are expressed in average and standard deviation for 6 mice.

HT29 cells [6] = experiment: Anti-tumor effect of 64Cu-ATSM and 6TG or PT in HT29 tumor-bearing mouse (tumor volume); assay type: in vivo, BALB/c nude mice; conditions: HT29 tumor-bearing mice; 6TG 12.5 mg/kg or PT 200 mg/kg i.p. once a day x4 days; 64Cu-ATSM 37 MBq via tail vein at final day (74 MBq alone in Comparative Example 3); to day 15; 6 mice
Description: (§3) The HT29 tumor-bearing model was prepared in the same way as Example 2, and 1 week after the implantation of HT29 cells, 6TG was repeatedly intraperitoneally administered at 12.5 mg/kg once a day for 4 days. At the final day of 6TG administration, 37 MBq (1 mCi) of ^64Cu-ATSM was administered through the tail vein. […] The tumor size in mice was measured 2, 4, 8, 12, or 15 days after starting the administration of 6TG.
The experiment was carried out in the same way as Example 5 except for administering saline in place of ^64Cu-ATSM.
as §3, with “PT” for “6TG”, “200” for “12.5”, “PT.” for “6TG.”
The experiment was carried out in the same way as Example 6 except for administering saline in place of ^64Cu-ATSM.
The volume of tumor was calculated from the size of tumor measured in Examples 5 and 6 and Comparative Examples 4 and 5; the change thereof with time is shown in FIG. 4. In FIG. 4, the tumor volume at the day prior to the day of the start of 6TG or PT administration was set to 100%, and the percentage based thereon was given. In FIG. 4, data are expressed in average and standard deviation for 6 mice. In addition, the results of Example 2 and Comparative Examples 1 to 3 were shown together in FIG. 4.

[7] = Study of dose of 6TG using nude mouse (rate of body weight reduction, death)
Description: 6TG was repeatedly intraperitoneally administered to BALB/c nude mice (male, 7-week old, about 25 g in body weight, obtained from Japan SLC, Inc.) at 12.5 mg/kg, 25 mg/kg, or 50 mg/kg once a day for 4 days. Body weight was measured at the 5th day from the first starting day of administration and later to determine the rate of body weight reduction. The rate of body weight reduction was calculated based on the following equation.
Body weight reduction rate(%)=[{(Body weight at day prior to the date of first 6TG administration)−(Body weight measured after start of 6TG administration)}/(Body weight at day prior to the date of first 6TG administration)]×100
Saline was administered to a control group in place of 6TG. In Table 2, they were expressed in average and standard deviation for 4 mice.

[8] = Study of dose of PT using nude mouse (rate of body weight reduction); assay type: in vivo, BALB/c nude mice; conditions: for Rate of Body Weight Reduction (%): average ± SD, 4 mice
Description: PT was repeatedly intraperitoneally administered to BALE/c nude mice (male, 7-week old, about 25 g in body weight, obtained from Japan SLC, Inc.) at 25, 50, 100, or 200 mg/kg once a day for 4 days. Body weight was measured at the 5th day from the first starting day of administration and later to determine the rate of body weight reduction. The rate of body weight reduction was calculated based on the following equation.
Body weight reduction rate(%)=[{(Body weight at day prior to the date of first PT administration)−(Body weight measured after start of PT administration)}/(Body weight at day prior to the date of first PT administration)]×100
Saline was administered to a control group in place of PT. In Table 3, they were expressed in average and standard deviation for 4 mice.

tumor = conditions: compared with 18FDG; Japanese Patent Laid-Open No. 2010-13380; cited from earlier work
[9] = system: CD133-positive cells in tumor; conditions: Yoshii et al. (2011), Nucl. Med. Biol. 38, 151-157; cited from earlier work
CD133-positive cells = conditions: Yoshii et al. (2010), Nucl. Med. Biol. 37, 395-404; cited from earlier work

Compound: O=c1[nH]cc(F)c(=O)[nH]1 [5-FU, 5-Fluorouracil]
- percentage of CD133+ cells in tumor (FIG. 3) [1]: can kill CD133+cells
- tumor volume, change with time (FIG. 5; % of volume at day prior to first start of 5-FU administration) (HT29 cells [2]): could hardly suppress the proliferation of tumor
- tumor volume, change with time (FIG. 1; % of volume at day prior to start of 5-FU administration) [3]: did not suppress the proliferation of tumor
- death of mice ([4]; 5-FU 50 mg/kg i.p. once a day for 4 days): died at the 10th or 11th day from administration
- death of mice ([4]; 5-FU 100 mg/kg i.p. once a day for 4 days): died at the 7th or 8th day from administration
- percentage of apoptotic cells in tumor (FIG. 2) [5]: apoptosis of tumor cells was confirmed

Compound: Nc1nc2nc[nH]c2c(=S)[nH]1 [6TG, 6-Thioguanine]
- tumor volume, change with time (FIG. 4; % of volume at day prior to start of 6TG or PT administration) (HT29 cells [6]): could not suppress the proliferation of tumor
- death of mice ([7]; 6TG 25 mg/kg i.p. once a day for 4 days): died at the 13th to 15th day from administration
- death of mice ([7]; 6TG 50 mg/kg i.p. once a day for 4 days): died at the 6th to 8th day from administration

- Rate of Body Weight Reduction (%) ([8]; PT 25 mg/kg/day i.p. once a day for 4 days, 5th Day): −8.42 ± 12.36%
- Rate of Body Weight Reduction (%) ([8]; PT 25 mg/kg/day i.p. x4 days, 9th Day): −12.11 ± 13.3%
- Rate of Body Weight Reduction (%) ([8]; PT 25 mg/kg/day i.p. x4 days, 12th Day): −10.94 ± 12.04%
- Rate of Body Weight Reduction (%) ([8]; PT 25 mg/kg/day i.p. x4 days, 16th Day): −14.11 ± 11.25%
- Rate of Body Weight Reduction (%) ([8]; PT 25 mg/kg/day i.p. x4 days, 18th Day): −15.38 ± 9.65%
- Rate of Body Weight Reduction (%) ([8]; PT 50 mg/kg/day i.p. x4 days, 5th Day): −3.94 ± 7.7%
- Rate of Body Weight Reduction (%) ([8]; PT 50 mg/kg/day i.p. x4 days, 9th Day): −12.12 ± 5.33%
- Rate of Body Weight Reduction (%) ([8]; PT 50 mg/kg/day i.p. x4 days, 12th Day): −12.91 ± 7.21%
- Rate of Body Weight Reduction (%) ([8]; PT 50 mg/kg/day i.p. x4 days, 16th Day): −16.03 ± 8.57%
- Rate of Body Weight Reduction (%) ([8]; PT 50 mg/kg/day i.p. x4 days, 18th Day): −15.41 ± 11.86%
- Rate of Body Weight Reduction (%) ([8]; PT 100 mg/kg/day i.p. x4 days, 5th Day): −5.03 ± 8.95%
- Rate of Body Weight Reduction (%) ([8]; PT 100 mg/kg/day i.p. x4 days, 9th Day): −12.82 ± 9.29%
- Rate of Body Weight Reduction (%) ([8]; PT 100 mg/kg/day i.p. x4 days, 12th Day): −16.86 ± 8.46%
- Rate of Body Weight Reduction (%) ([8]; PT 100 mg/kg/day i.p. x4 days, 16th Day): −20.08 ± 9.11%
- Rate of Body Weight Reduction (%) ([8]; PT 100 mg/kg/day i.p. x4 days, 18th Day): −21.05 ± 6.18%
- Rate of Body Weight Reduction (%) ([8]; PT 200 mg/kg/day i.p. x4 days, 5th Day): −5.75 ± 9.93%
- Rate of Body Weight Reduction (%) ([8]; PT 200 mg/kg/day i.p. x4 days, 9th Day): −15.25 ± 10.49%
- Rate of Body Weight Reduction (%) ([8]; PT 200 mg/kg/day i.p. x4 days, 12th Day): −18.1 ± 9.64%
- Rate of Body Weight Reduction (%) ([8]; PT 200 mg/kg/day i.p. x4 days, 16th Day): −18.1 ± 9.64%
- Rate of Body Weight Reduction (%) ([8]; PT 200 mg/kg/day i.p. x4 days, 18th Day): −17.19 ± 9.86%
- rate of body weight reduction ([8]; PT, all groups (25, 50, 100, 200 mg/kg once a day for 4 days), even at the 18th day): ≤ 10%
Compound: Nc1nc2[nH]cc(CCc3ccc(C(=O)N[C@@H](CCC(=O)O)C(=O)O)cc3)c2c(=O)[nH]1 [PT, Pemetrexed]
- tumor volume, change with time (FIG. 4; % of volume at day prior to start of 6TG or PT administration) (HT29 cells [6]): could not suppress the proliferation of tumor

Compound: diacetyl-bis(N4-methylthiosemicarbazone) copper complex [^64Cu-ATSM]
- sites of accumulation in tumor (tumor): accumulate in sites different from those for ^18FDG in tumor
- amount of CD133-positive cells in tumor and tumor size [9]: decreased the amount of CD133-positive cells in tumor to shrink the tumor
- percentage of CD133+ cells in tumor (FIG. 3) [1]: can kill CD133+cells
- tumor volume, change with time (FIG. 5; % of volume at day prior to first start of 5-FU administration) (HT29 cells [2]): suppressed the proliferation of tumor depending on the dose thereof
- tumor volume, change with time (FIG. 4; % of volume at day prior to start of 6TG or PT administration) (HT29 cells [6]): could suppress the proliferation of tumor depending on the dose thereof
- accumulation in CD133-positive cells (CD133-positive cells): accumulates in CD133-positive cells
- tumor volume, change with time (FIG. 1; % of volume at day prior to start of 5-FU administration) [3]: suppressed the proliferation of tumor depending on the dose thereof
- percentage of apoptotic cells in tumor (FIG. 2) [5]: apoptosis of tumor cells was confirmed
